Reference: patent US10525032B2, “Antimicrobial compositions comprising mupirocin and neomycin” (University of Rochester, priority 2015, dated 2020)
Where two headings read alike, the source gives them in different places.

Columns and labels:
S. aureus strain UAMS-1 [1] = experiment: Minimum inhibitory concentration (MIC) testing, CLSI microtiter, with or without mupirocin; type: cell-based, Staphylococcus aureus; details: for MIC: Staphylococcus aureus
Protocol: Screen of Selleck Library. Members of the Selleck Library of Food and Drug […] approved drugs (Selleck Chemicals, Houston Tex., L1300) were screened for agents that potentiate the antimicrobial activity of mupirocin toward S. aureus strain UAMS-1. To do so, 1×10^5 colony forming units of UAMS-1 were added to individual wells of a 96-well microtiter plate, mixed with 0.03 μg/mL mupirocin (0.5× minimum inhibitory concentration) and 50 μM of test agent in Mueller Hinton broth (MHB; 100 μL total well volume). Microtiter plates were incubated at 37° C. for 16 hr, and individual wells were inspected for growth. Wells lacking growth were considered to represent agents that either potentiated the antimicrobial properties of mupirocin or mupirocin-independent antimicrobial microbial properties.
(§1) Antimicrobial Susceptibility Testing. Minimum inhibitory concentration (MIC) was tested in accordance with the Clinical and Laboratory Standards Institute (CLSI) guidelines. Briefly, 1×10^5 CFU of the indicated S. aureus strain was added to individual wells of a microtiter plate containing 88 μL of MHB media and two-fold increasing concentrations of mupirocin or test agent (0-128 μg ml^−1). Plates were incubated for 16 hr at 37° C. and wells were visually inspected for growth. The lowest concentration of mupirocin or test agent that inhibited S. aureus growth was considered to be the minimum inhibitory concentration. Fractional inhibitory concentration index (FIC) testing was performed to measure interactions between mupirocin and neomycin, as previously described. See Odds F C. 2003. Synergy, antagonism, and what the chequerboard puts between them. The Journal of antimicrobial chemotherapy 52:1. Briefly, in checkerboard format each row of the plate contained increasing concentrations of mupirocin (2-fold increments; 0-0.5 μg/mL), whereas each column contained increasing concentrations of neomycin (2-fold increments; 0-32 μg/mL). To every well (100 μl total volume) MHB containing 3×10^5 CFU of S. aureus strain UAMS-1 was added and the plate was incubated at 37° C. overnight (16-20 hr). The FIC was determined using the following formula: (MIC of Drug A in Combination/MIC of Drug A Alone)+(MIC of Drug B in Combination/MIC of Drug B Alone)=FIC. A synergistic interaction was defined as an FIC value≤0.5, additive as FIC value 0.5-1.0, no interaction as an FIC of 1-4, or an antagonistic interaction FIC>4.
Members of the Selleck library of 853 FDA approved drugs were screened for agents that potentiate the activity of mupirocin. […] Conversely, the antimicrobial activity of Nitazoxanide, Nitrofurazone, and Neomycin sulfate, increased in the presence of mupirocin.

S. aureus strain UAMS-1 [2] = experiment: Fractional inhibitory concentration index (FIC) checkerboard testing with mupirocin; type: cell-based, Staphylococcus aureus; details: combined with mupirocin, additive = 0.5-1.0
Protocol: as §1

S. aureus strain UAMS-1 [3] = type: in vivo, Staphylococcus aureus; details: Balb-c mice
Protocol: Nasal Colonization and Treatment of Mice. Ointments were evaluated for in vivo antimicrobial activity using a S. aureus nasal colonization model as previously described, but with modifications. See Kiser K B, Cantey-Kiser J M, Lee J C. 1999. Development and characterization of a Staphylococcus aureus nasal colonization model in mice. Infect Immun 67:5001-5006. The nostrils of awake mice were inoculated with 1×10^7 of the indicated S. aureus strain by pipetting 10 μL of culture directly into the nostrils and confirmed by the visualization of air bubbles appearing as the mouse breathed in and out. Mice nostrils were then treated with 10 μL PEG ointment (brought to 55° C. in a heat block to liquefy) containing either vehicle alone or the indicated antibiotic 45 min post inoculation and treatments were repeated every 8 hr for three days. […]
A murine model of S. aureus nasal colonization was used to compare the antimicrobial efficacy of mupirocin, neomycin, and the two agents when applied in combination. To do so, the nasal passage of Balb-c mice were inoculated with ˜1×10^7 colony forming units of S. aureus then treated three times a day for a total of three days, at which point the bacterial burden was measured and the antibiotic susceptibility of ten isolates from each animal was measured by MIC testing.

S. aureus strain UAMS-1 [4] = experiment: Murine dermal wound model of infection; type: in vivo, Staphylococcus aureus
Protocol: Dermal Wound Model of Infection and Treatment of Mice. The effects of ointment compilations were evaluated for in vivo antimicrobial activity using a S. aureus dermal wound model, but with modifications. See Guthrie K M, Agarwal A, Tackes D S, Johnson K W, Abbott N L, Murphy C J, Czuprynski C J, Kierski P R, Schurr M J, McAnulty J F. 2012. Antibacterial efficacy of silver-impregnated polyelectrolyte multilayers immobilized on a biological dressing in a murine wound infection model. Annals of surgery 256:371-377. Mice were anesthetized by intraperitoneal injection with a mixture of 100 mg ml^−1 Ketamine (Hospira Inc., Lake Forest Ill.) and 20 mg ml^−1 Xylazine (Lloyd Laboratories, Shenandoah Iowa) in NaCl at five μ1 per 1 g body weight. Pain relief in the form of 20 μL 0.5% Sensorcaine (APP Pharmaceuticals, Schaumburg, Ill.) was administered prior to dermal wounding. […]
To do so, a dermal wound was created on the back of Balb-c mice, inoculated with either S. aureus strain UAMS-1, USA300, or BAA-1708, and then treated with test agent suspended in PEG-based ointment twice a day for a total of 3 days, at which point bacterial burden was measured.

S. aureus strain UAMS-1 [5] = details: previous studies; cited from earlier work
strain BAA-1708 = experiment: MIC testing; type: cell-based; details: Staphylococcus aureus, BAA1708; BAA-1708 (mupA), data not shown
Protocol: as §1, with “To every well (100 μl total volume) MHB containing 3×10^5 CFU of S. aureus strain UAMS-1 was added and the plate was incubated at 37° C. overnight (16-20 hr).” left out, “A synergistic interaction was defined as an FIC value≤0.5, additive as FIC value 0.5-1.0, no interaction as an FIC of 1-4, or an antagonistic interaction FIC>4.” left out

S. aureus RNase P = experiment: RNase P ptRNA processing assay; type: biochemical, Staphylococcus aureus; details: 250 μM, in vitro
Protocol: RNase P ptRNA Processing Assay. S. aureus RNase P activity assays were performed as previously described. See Eidem T M, Lounsbury N, Emery J F, Bulger J, Smith A, Abou-Gharbia M, Childers W, Dunman P M. 2015. Small-molecule inhibitors of Staphylococcus aureus RnpA-mediated RNA turnover and tRNA processing. Antimicrob Agents Chemother 59:2016-2028. Briefly, RNase P was first reconstituted by mixing an equimolar ratio of denatured rnpB and RnpA for 15 min at 37° C. then added (5 pmol) to 10 pmol of ptRNA^Tyr, and increasing concentrations of the indicated concentration of neomycin or the known RNase P inhibitor, RNPA2000 in a total volume of 20 μl. […] A FluorChem 5500 imaging system was used to visualize RNA products and quantified using ImageJ software (National Institutes of Health, Bethesda Md.). The percent RNase P activity was then calculated using the following equation: test compound tRNA^Tyr signal/mock tRNA^Tyr signal.
Aminoglycoside antibiotics, such has neomycin, contain a central deoxystreptamine ring decorated with amino-sugar modifications and act by binding to the major groove of the 16S rRNA to disrupt the fidelity of tRNA selection and block protein translation. […] A real-time fluorescence polarization activity assay to screen for inhibitors of bacterial ribonuclease P. Nucleic acids research 42:e159.

USA300 = experiment: MIC testing; type: cell-based, Staphylococcus aureus; details: USA300, data not shown
Protocol: as §1, with “To every well (100 μl total volume) MHB containing 3×10^5 CFU of S. aureus strain UAMS-1 was added and the plate was incubated at 37° C. overnight (16-20 hr).” left out, “A synergistic interaction was defined as an FIC value≤0.5, additive as FIC value 0.5-1.0, no interaction as an FIC of 1-4, or an antagonistic interaction FIC>4.” left out

[6] = UAMS1, medium containing 0.25× the strain's mupirocin MIC, UAMS-1, read-out: MIC (+) Mup.
[7] = UAMS1, read-out: MIC (−) Mup., medium lacking mupirocin, UAMS-1

Compound: CC(=O)Oc1ccccc1C(=O)Nc1ncc([N+](=O)[O-])s1 [Nitazoxanide]
- MIC (S. aureus strain UAMS-1 [1]; [6]): 8 µg/mL
- MIC (S. aureus strain UAMS-1 [1]; [7]): 16 µg/mL
- Fractional Inhibitory Concentration Index (S. aureus strain UAMS-1 [2]): 0.75

Compound: NC(=O)N/N=C/c1ccc([N+](=O)[O-])o1 [Nitrofurazone]
- MIC (S. aureus strain UAMS-1 [1]; [6]): 8 µg/mL
- MIC (S. aureus strain UAMS-1 [1]; [7]): 16 µg/mL
- Fractional Inhibitory Concentration Index (S. aureus strain UAMS-1 [2]): 0.75

Compound: CC(C)c1ccc(OCC(=O)NNC(=S)NC(=O)c2ccco2)cc1 [RNPA2000]
- nasal decolonization (in words) (S. aureus strain UAMS-1 [3]): does not exhibit antimicrobial activity
- wound decolonization (in words) (S. aureus strain UAMS-1 [4]): does not exhibit antimicrobial activity
- FIC measures with mupirocin (S. aureus strain UAMS-1 [5]): < 0.5

Compound: C/C(=C\C(=O)OCCCCCCCCC(=O)O)C[C@@H]1OC[C@H](C[C@@H]2O[C@H]2[C@@H](C)[C@H](C)O)[C@@H](O)[C@H]1O [mupirocin]
- MIC (S. aureus strain UAMS-1 [1]; UAMS1, UAMS-1 isolates from two 2% mupirocin treated mice with higher nasal burdens): 0.5 µg/mL
- MIC (S. aureus strain UAMS-1 [1]; UAMS1, inoculating strain UAMS-1 and isolates from the other animals of the 2% mupirocin nasal treatment group): 0.125 µg/mL
- MIC (S. aureus strain UAMS-1 [1]; UAMS1, read-out: mupirocin minimum inhibitory concentration (MIC), UAMS-1, as stated for the library screen): 0.3 µg/mL
- increase in mupirocin tolerance (S. aureus strain UAMS-1 [1]; isolates from two higher-burden mice versus inoculating strain): 4 fold
- MIC (strain BAA-1708): > 256 µg/mL

Compound: neomycin
- MIC (+) Mup. (S. aureus strain UAMS-1 [1]; medium containing 0.25× the strain's mupirocin MIC, UAMS-1): 0.25 µg/mL
- MIC (−) Mup. (S. aureus strain UAMS-1 [1]; medium lacking mupirocin, UAMS-1): 0.5 µg/mL
- Fractional Inhibitory Concentration Index (S. aureus strain UAMS-1 [2]): 0.75
- inhibition of RNase P-catalyzed maturation of precursor tRNA^Tyr (S. aureus RNase P): inhibit
- MIC (USA300): 128 µg/mL
